These results are taken from US10941158B2, “Pyrazole ACC inhibitors and uses thereof” (Gilead Apollo, LLC, priority 2015, dated 2021).

Converted amounts (≈) assume the structure as drawn. Read-outs that look alike come from different tables or passages of the source.

One experiment has as its system C. albicans ATCC 90028. Put plainly: Anti-Fungal (Candida) Activity Assay, broth microtiter MIC. It is filed as cell-based. The following applies: ATCC90028, 3 replicates, MIC recorded at 48 h, read-out: MIC C. albicans ATCC 90028. Summed up:
(§1)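 Broth microdilution per CLSI M27-A3 in RPMI 1640 + MOPS, with inocula from colonies grown 24 h at 35 °C on Sabouraud dextrose agar and set by standard curve. Compounds came from 1 mg/mL DMSO stocks. MIC was read visually against the growth control at 48 h.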

The next experiment has as its system C. krusei ATCC 6258. The experiment is described as above. It is filed as cell-based. The settings on record: Pichia kudriavzevii, ATCC6258; 3 replicates, MIC recorded at 48 h; read-out: MIC C. krusei ATCC 6258. Summed up:
as §1

The test system of experiment [1] is C. parapsilosis ATCC 22019. Described as above. It is filed as cell-based. The settings on record: Lodderomyces parapsilosis, ATCC22019; 3 replicates, MIC recorded at 48 h; read-out: MIC C. parapsilosis ATCC 22019. Summed up:
as §1

For another experiment, the system named is Diplodia maydis (Dm). The experiment can be described thus: Growth inhibition assay of fungal pathogens. It is filed as cell-based. The following applies: Stenocarpella maydis, 48 h, read-out: Concentration at 90% Inhibition Dm. The procedure, abridged: (§2)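 Spores of Fm, Bc and Dm were suspended in 17% V8 liquid medium, while Rs was inoculated as 1.5 mm mycelial plugs in ¼ PDB. Compounds were tested at final 50, 10 and 2 ppm or 2, 0.4 and 0.08 ppm. Percent growth inhibition at 48 h versus 2% DMSO came from OD600 and visual ratings.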

For experiment [2], the system named is Fusarium moniliforme (Fm). Put plainly: Growth inhibition assay of fungal pathogens. The following applies: Fusarium verticillioides, 48 h, 48 hours, read-out: Concentration at 90% Inhibition Fm. The format is cell-based. The procedure, abridged:
as §2

The test system of the next experiment is Rhizoctonia solani (Rs). The experiment can be described thus: Growth inhibition assay of fungal pathogens. The format is cell-based. The following applies: 48 h, read-out: Concentration at 90% Inhibition Rs. Summed up:
as §2

Experiment [3] has as its system Collectotrichum graminicola (Cg). Put plainly: Growth inhibition assay of fungal pathogens. It is filed as cell-based. The following applies: 48 h, read-out: Concentration at 90% Inhibition Cg. The procedure, abridged: (§3)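 Compounds in DMSO tested at final 50, 10, 2 ppm or 2, 0.4, 0.08 ppm. Spores in 17% V8 medium, or 1.5 mm mycelial plugs in ¼ PDB for R. solani, incubated with compound. OD600 and visual ratings at 48 h versus 2% DMSO control gave percent growth inhibition.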

In another experiment the test system is Botrtyis cinerea (Bc). The experiment can be described thus: Growth inhibition assay of fungal pathogens. It is filed as cell-based. The following applies: 48 h, read-out: Concentration at 90% Inhibition Bc. Summed up:
as §2

The test system of experiment [4] is Fusarium virguliforme (Fv). Put plainly: Growth inhibition assay of fungal pathogens. It is filed as cell-based. The following applies: 48 h, 48 hours, read-out: Concentration at 90% Inhibition Fv. The procedure, abridged: as §3
The next experiment has as its system Septoria tritici (St). Put plainly: Growth inhibition assay of fungal pathogens. The settings on record: 48 hours; for IC90: Zymoseptoria tritici, read-out: Concentration at 90% Inhibition St. The format is cell-based. Summed up:
as §3

For experiment [5], the system named is Phytophthora capsici (Pc). Put plainly: Growth inhibition assay of fungal pathogens. It is filed as cell-based. The settings on record: 48 hours; for IC90: Phytophthora capsici, read-out: Concentration at 90% Inhibition Pc. The procedure, abridged: as §3
The target in a further experiment is human (hACC2) ACC2 (Homo sapiens, UniProt O00763). Put plainly: In vitro Acetyl-CoA Carboxylase (ACC) inhibition assay (ADP-Glo), hACC2. It is filed as biochemical. As for the experimental part: The detailed procedure is as follows. […] 10 μL ADP glo reagent was added. […] 20 μL kinase detection reagent was added.
“NA” stands for “not assayed.”
(In general: ADP-Glo first removes unused ATP, then detects ADP through luciferase.)

A further experiment deals with fungal (fACC2) ACC2 (UniProt Q00955). The settings on record: read-out: fACC2 IC50; fungal ACC2, ADP-Glo.
fungal (fACC2) ACC2, sequence (Q00955 whole entry): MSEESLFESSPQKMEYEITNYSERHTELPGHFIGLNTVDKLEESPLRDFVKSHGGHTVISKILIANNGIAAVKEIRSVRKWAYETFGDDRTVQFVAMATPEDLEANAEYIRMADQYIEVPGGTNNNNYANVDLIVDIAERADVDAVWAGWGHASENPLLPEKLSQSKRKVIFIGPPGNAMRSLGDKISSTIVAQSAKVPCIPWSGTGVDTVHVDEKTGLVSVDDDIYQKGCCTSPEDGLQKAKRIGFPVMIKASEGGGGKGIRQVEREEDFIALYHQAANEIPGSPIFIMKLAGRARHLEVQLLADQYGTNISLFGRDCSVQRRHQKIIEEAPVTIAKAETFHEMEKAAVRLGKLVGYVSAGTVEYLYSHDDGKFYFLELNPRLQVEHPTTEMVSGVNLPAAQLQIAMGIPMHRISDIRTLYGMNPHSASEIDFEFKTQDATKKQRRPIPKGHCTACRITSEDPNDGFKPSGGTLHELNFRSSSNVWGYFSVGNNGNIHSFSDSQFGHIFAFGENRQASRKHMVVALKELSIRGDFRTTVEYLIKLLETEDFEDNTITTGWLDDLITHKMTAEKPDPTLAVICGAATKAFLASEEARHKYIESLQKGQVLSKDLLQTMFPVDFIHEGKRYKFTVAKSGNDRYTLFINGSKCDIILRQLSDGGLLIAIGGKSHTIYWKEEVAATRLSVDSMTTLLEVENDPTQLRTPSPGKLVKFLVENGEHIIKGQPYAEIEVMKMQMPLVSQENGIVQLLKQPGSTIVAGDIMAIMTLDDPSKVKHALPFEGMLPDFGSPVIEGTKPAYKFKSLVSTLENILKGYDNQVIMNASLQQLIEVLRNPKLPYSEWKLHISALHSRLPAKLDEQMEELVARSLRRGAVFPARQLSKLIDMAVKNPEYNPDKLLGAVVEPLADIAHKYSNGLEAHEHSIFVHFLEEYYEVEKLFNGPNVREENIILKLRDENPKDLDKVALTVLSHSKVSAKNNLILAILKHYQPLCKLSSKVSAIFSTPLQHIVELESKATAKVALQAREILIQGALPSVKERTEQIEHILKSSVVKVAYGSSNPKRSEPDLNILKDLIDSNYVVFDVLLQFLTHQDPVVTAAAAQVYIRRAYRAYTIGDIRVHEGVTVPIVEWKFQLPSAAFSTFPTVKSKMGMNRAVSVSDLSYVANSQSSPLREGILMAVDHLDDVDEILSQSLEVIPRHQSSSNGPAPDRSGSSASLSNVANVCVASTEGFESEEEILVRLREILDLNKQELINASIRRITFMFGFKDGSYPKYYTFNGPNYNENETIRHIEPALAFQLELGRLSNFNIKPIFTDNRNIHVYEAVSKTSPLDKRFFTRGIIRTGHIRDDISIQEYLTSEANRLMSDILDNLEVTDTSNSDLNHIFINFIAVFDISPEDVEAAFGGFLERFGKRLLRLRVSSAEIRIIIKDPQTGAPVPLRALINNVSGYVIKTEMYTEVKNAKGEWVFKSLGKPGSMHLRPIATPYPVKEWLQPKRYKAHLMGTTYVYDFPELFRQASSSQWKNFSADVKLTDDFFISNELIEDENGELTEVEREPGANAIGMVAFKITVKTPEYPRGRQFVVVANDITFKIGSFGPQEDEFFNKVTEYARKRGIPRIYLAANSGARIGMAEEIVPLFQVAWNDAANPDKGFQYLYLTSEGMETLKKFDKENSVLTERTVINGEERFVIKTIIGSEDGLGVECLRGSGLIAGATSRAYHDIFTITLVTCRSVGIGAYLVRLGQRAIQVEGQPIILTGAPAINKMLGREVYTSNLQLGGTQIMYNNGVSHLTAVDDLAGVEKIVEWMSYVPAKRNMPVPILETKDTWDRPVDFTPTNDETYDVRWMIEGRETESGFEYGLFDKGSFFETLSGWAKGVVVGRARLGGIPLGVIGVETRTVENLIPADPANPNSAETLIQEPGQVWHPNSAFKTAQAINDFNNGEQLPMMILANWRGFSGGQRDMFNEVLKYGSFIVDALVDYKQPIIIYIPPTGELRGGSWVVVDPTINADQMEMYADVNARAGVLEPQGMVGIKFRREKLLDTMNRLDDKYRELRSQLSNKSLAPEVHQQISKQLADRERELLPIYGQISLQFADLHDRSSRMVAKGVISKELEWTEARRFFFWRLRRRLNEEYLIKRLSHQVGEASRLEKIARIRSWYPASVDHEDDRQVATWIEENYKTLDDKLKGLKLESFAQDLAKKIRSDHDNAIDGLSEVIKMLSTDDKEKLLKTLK

human (hACC2) ACC2, sequence (O00763 whole entry): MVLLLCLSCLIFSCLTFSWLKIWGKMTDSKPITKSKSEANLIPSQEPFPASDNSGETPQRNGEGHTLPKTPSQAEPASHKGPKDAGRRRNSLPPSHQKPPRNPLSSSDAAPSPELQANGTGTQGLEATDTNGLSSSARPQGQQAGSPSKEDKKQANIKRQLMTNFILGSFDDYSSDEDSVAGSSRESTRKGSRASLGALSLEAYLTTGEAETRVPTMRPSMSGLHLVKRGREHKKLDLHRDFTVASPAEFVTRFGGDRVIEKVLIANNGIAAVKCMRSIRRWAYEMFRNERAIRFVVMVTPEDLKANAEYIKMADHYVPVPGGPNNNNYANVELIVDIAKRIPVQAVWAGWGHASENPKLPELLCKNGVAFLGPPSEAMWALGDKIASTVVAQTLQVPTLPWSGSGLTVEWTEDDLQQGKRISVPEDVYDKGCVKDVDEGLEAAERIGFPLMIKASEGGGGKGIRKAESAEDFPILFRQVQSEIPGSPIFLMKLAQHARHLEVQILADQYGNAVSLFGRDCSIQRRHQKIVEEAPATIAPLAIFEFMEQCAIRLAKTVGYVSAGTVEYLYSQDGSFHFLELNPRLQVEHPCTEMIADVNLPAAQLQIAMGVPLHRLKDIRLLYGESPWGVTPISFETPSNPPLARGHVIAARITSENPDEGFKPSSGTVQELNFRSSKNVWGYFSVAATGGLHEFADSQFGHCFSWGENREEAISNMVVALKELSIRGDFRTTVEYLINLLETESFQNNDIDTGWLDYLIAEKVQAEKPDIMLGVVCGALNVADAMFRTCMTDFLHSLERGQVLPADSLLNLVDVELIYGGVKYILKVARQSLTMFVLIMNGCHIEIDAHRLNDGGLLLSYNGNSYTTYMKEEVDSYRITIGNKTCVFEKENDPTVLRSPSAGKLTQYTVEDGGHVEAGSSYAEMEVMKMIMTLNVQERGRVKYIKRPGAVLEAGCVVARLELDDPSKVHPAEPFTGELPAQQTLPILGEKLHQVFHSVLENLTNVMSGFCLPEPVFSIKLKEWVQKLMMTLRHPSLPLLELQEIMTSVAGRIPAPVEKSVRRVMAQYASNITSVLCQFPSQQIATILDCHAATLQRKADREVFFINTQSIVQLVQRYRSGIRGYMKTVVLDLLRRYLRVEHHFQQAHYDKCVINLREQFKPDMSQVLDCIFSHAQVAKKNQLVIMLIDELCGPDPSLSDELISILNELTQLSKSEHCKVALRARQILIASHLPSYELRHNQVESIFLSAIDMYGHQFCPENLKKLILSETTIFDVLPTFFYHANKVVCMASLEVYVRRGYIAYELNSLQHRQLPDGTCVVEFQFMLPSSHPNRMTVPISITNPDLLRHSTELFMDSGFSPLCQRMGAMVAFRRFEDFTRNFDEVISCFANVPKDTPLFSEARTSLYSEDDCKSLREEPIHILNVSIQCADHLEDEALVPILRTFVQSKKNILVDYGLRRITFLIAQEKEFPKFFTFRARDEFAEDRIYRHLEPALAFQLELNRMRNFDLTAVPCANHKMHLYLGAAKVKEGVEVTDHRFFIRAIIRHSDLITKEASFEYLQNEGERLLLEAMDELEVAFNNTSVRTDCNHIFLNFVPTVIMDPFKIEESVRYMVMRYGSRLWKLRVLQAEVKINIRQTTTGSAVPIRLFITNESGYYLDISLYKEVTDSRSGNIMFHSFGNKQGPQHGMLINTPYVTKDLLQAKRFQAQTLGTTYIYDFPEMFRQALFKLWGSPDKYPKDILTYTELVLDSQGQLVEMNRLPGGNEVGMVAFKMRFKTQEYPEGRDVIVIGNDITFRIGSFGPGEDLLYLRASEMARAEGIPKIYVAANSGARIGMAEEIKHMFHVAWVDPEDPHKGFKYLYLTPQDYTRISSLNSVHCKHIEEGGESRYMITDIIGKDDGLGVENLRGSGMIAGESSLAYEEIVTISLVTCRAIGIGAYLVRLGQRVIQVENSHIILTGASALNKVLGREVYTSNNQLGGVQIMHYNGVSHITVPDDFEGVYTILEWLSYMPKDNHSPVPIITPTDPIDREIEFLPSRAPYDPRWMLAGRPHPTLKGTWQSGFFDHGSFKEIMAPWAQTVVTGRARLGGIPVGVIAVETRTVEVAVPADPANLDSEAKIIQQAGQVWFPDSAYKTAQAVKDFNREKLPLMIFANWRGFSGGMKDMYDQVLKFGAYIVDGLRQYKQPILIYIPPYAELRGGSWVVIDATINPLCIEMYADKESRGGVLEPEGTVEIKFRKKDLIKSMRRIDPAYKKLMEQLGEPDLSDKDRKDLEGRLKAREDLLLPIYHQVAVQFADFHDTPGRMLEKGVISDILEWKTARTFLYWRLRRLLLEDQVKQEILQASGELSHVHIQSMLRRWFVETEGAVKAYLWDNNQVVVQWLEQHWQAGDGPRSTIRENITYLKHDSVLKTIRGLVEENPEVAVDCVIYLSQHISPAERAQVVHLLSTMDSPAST
Description for fungal (fACC2) ACC2: An exemplary procedure for the in vitro ACC inhibition assay, which can be used to determine the inhibitory action of compounds of the invention toward either human (hACC2) or fungal (fACC2) ACC2, follows. The ADP-Glo™ Kinase Assay kit from Promega was used. The ADP-Glo™ Kinase Assay is a luminescent ADP detection assay to measure enzymatic activity by quantifying the amount of ADP produced during an enzyme reaction. The assay is performed in two steps; first, after the enzyme reaction, an equal volume of ADP-Glo™ Reagent is added to terminate the reaction and deplete the remaining ATP. Second, the Kinase Detection Reagent is added to simultaneously convert ADP to ATP and allow the newly synthesized ATP to be measured using a luciferase/luciferin reaction. Luminescence can be correlated to ADP concentrations by using an ATP-to-ADP conversion curve. The detailed procedure is as follows. 50 μL of the compound being tested (600 μM in DMSO) was added to a 384-well dilution plate. The compound was diluted 1:3 in succession in DMSO for each row for 11 wells. 0.5 μL ACC2 working solution was added to 384-well white Optiplate assay plate. 0.5 μL diluted compound solution in each column from step 2 was added to assay plate, each row containing 2 replicates. […] The plates were incubated at room temperature for 15 minutes. 5 μL substrate working solution was added to each well to initiate reaction. Final ACC2 reaction concentrations consist of: 5 nM ACC2, 20 μM ATP, 20 μM acetyl-CoA, 12 mM NaHCO3, 0.01% Brij35, 2 mM DTT, 5% DMSO, test compound concentrations: 30 μM, 10 μM, 3.33 μM, 1.11 μM, 0.37 μM, 0.123 μM, 0.0411 μM, 0.0137 μM, 0.00457 μM, 0.00152 μM, and 0.00051 μM. Plates were incubated at room temperature for 60 minutes. 10 μL ADP glo reagent was added. Plates were incubated at room temperature for 40 minutes. 20 μL kinase detection reagent was added. Plates were incubated at room temperature for 40 minutes, and then read on a Perkin Elmer EnVision 2104 plate reader for luminescence as Relative Light Units (RLU).
Data for each concentration, as well as the positive and negative controls were averaged, and the standard deviation calculated. Percent inhibition was calculated by the formula: 100×(average negative control−compound)/(average negative control−average positive control). The IC50 for each compound was calculated by fitting the data with a non-linear regression equation: Y=Bottom+(Top-Bottom)/(1+10^((Log IC50−X)*Hill Slope)), where X is the log of compound concentration and Y is percent inhibition.
Compounds having an activity designated as “AA” provided an IC50 0.0006-0.003 μM; provided an “A” provided an IC50 0.003-0.01 μM; compounds having an activity designated as “B” provided an IC50 0.01-0.04 μM; and compounds having an activity designated as “C” provided an IC50>0.04 μM IC50. “NA” stands for “not assayed.”

Take `COc1ccc(F)cc1[C@H](Cn1c(=O)n(C(C)C(=O)N2CCCC2)c(=O)c2c(C)c(-n3cccn3)sc21)OC(C)C` (stereo partly drawn) [Compound I-32, 1-((R)-2-(5-fluoro-2-methoxyphenyl)-2-isopropoxyethyl)-5-methyl-3-(1-oxo-1-(pyrrolidin-1-yl)propan-2-yl)-6-(1H-pyrazol-1-yl)thieno[2,3-d]pyrimidine-2,4(1H,3H)-dione]: the MIC is 2.1 to 4 µg/mL (≈ 3.6 to 6.85 µM) in the experiment on C. albicans ATCC 90028, 2.1 to 4 µg/mL (≈ 3.6 to 6.85 µM) in the experiment with C. krusei ATCC 6258 and above 4.1 µg/mL in [1]. Moreover, the IC90 turned out to be 2 µg/mL (≈ 3.43 µM) in the experiment on Diplodia maydis (Dm) (Table 4a); 2 µg/mL (≈ 3.43 µM) in the experiment with Diplodia maydis (Dm) (Table 4b); 0.08 µg/mL (≈ 0.137 µM) in experiment [2] (Table 4a); 0.08 µg/mL (≈ 0.137 µM) in experiment [2] (Table 4b); 2 µg/mL (≈ 3.43 µM) in the experiment on Rhizoctonia solani (Rs) (Table 4a); 2 µg/mL (≈ 3.43 µM) in the experiment with Rhizoctonia solani (Rs) (Table 4b). The IC90 (in experiment [3] (Table 4a); in [3] (Table 4b); with Botrtyis cinerea (Bc) (Table 4a); in the experiment on Botrtyis cinerea (Bc) (Table 4b); in experiment [4] (Table 4a); in experiment [4] (Table 4b)) was 0.4 µg/mL (≈ 0.685 µM) each time. The IC90 (with Septoria tritici (St) (Table 4a); in experiment [5] (Table 4a)) was above 50 µg/mL throughout. In the experiment with Septoria tritici (St) (Table 4b), the “Concentration at 90% Inhibition St” value is on record as “D (“D” provided a compound concentration of >50 ppm at 90% inhibition of fungal pathogens)”. For the same compound, the “Concentration at 90% Inhibition Pc” value in experiment [5] (Table 4b) is “D (“D” provided a compound concentration of >50 ppm at 90% inhibition of fungal pathogens)”. For the same compound, the IC50 against human (hACC2) ACC2 was in the range of 3 to 10 nM; at fungal (fACC2) ACC2 it was 0.6 to 3 nM.

For `COCCO[C@@H](Cn1c(=O)n(C(C)(C)C(=O)NC2CCC2)c(=O)c2c(C)c(-n3cccn3)sc21)c1cc(F)ccc1OC` [Compound I-47, (R)—N-cyclobutyl-2-(1-(2-(5-fluoro-2-methoxyphenyl)-2-(2-methoxyethoxy)ethyl)-5-methyl-2,4-dioxo-6-(1H-pyrazol-1-yl)-1,4-dihydrothieno[2,3-d]pyrimidin-3(2H)-yl)-2-methylpropanamide], the MIC (with C. albicans ATCC 90028; in the experiment with C. krusei ATCC 6258; in experiment [1]) was 0.25 to 1 µg/mL (≈ 0.407 to 1.63 µM) in each case. For the same compound, the IC90 in the experiment with Diplodia maydis (Dm) (Table 4b) is above 50 µg/mL; in [2] (Table 4b), 0.4 µg/mL (≈ 0.652 µM); with Rhizoctonia solani (Rs) (Table 4b), above 50 µg/mL; in experiment [3] (Table 4b) it was 10 µg/mL (≈ 16.3 µM); in the experiment on Botrtyis cinerea (Bc) (Table 4b), 2 µg/mL (≈ 3.26 µM); in [4] (Table 4b), 2 µg/mL (≈ 3.26 µM). Besides, the IC90 (in the experiment on Septoria tritici (St) (Table 4b); in experiment [5] (Table 4b)) was above 50 µg/mL in each case. The figures for the IC50 against human (hACC2) ACC2 and on fungal (fACC2) ACC2 were 10 to 40 nM and 0.6 to 3 nM, respectively.

`COc1ccc(F)cc1[C@H](Cn1c(=O)n(C(C)(C)C(=O)O)c(=O)c2c(C)c(-n3cccn3)sc21)OCCC#N` [Compound I-82]: the minimal inhibitory concentration (MIC) (with C. albicans ATCC 90028; in the experiment with C. krusei ATCC 6258; in [1]) was above 4.1 µg/mL in each case. Also, the IC90 in the experiment with Diplodia maydis (Dm) (Table 4b) is above 50 µg/mL; in experiment [2] (Table 4b) it was 2 µg/mL (≈ 3.6 µM); in the experiment on Rhizoctonia solani (Rs) (Table 4b) it was 10 µg/mL (≈ 18 µM); in experiment [3] (Table 4b), above 50 µg/mL; with Botrtyis cinerea (Bc) (Table 4b) it was 10 µg/mL (≈ 18 µM); in [4] (Table 4b) it was 10 µg/mL (≈ 18 µM). The IC90 (in the experiment on Septoria tritici (St) (Table 4b); in experiment [5] (Table 4b)) was above 50 µg/mL throughout. Besides, the IC50 fell in the range of 10 to 40 nM against human (hACC2) ACC2 and 0.6 to 3 nM on fungal (fACC2) ACC2.

In general, MIC refers to the lowest concentration that inhibits growth of the organism. By IC50 is commonly meant the concentration needed to halve the response being measured.
